Data from ChEMBL document CHEMBL5233277, “Oxidative Metabolism as a Modulator of Kratom's Biological Actions” (J Med Chem, 2021).
Active and inactive are the calls of the source. The calls are words filed in the database; no cut-off is given here.

Key:
[1] = tested on: Mus musculus; assay: Antinociceptive activity in MOR knock out C57BL/6J mouse at 45 mg/kg, po measured after 20 mins; format: functional, organism-based
[2] = Toxicity in C57BL/6J mouse assessed as effect on locomotion at 20 mg/kg, po measured after 3 hrs; format: organism-based; conditions: in vivo
[3] = Drug concentration in C57BL/6J mouse brain at 30 mg/kg, sc measured after 20 mins by LC-MS/MS analysis; format: ADME, organism-based; conditions: read-out: Ct
[4] = tested on: Mus musculus; assay: Antinociceptive activity in sc dosed 129Sv6 mouse model assessed as peak effect measured at 15 mins by radiant heat tail flick assay; format: functional; conditions: 129Sv6, 0.25 h
[5] = tested on: Mus musculus; assay: Antinociceptive activity in DOR knock out C57BL/6J mouse at 45 mg/kg, po measured after 20 mins; format: functional, organism-based
[6] = Drug metabolism in human liver microsomes assessed as mitragynine pseudoindoxyl formation at 1 uM incubated for 60 mins by LC-MS/MS analysis; format: ADME, Microsome; conditions: 1 h
[7] = Drug metabolism in 129Sv6 mouse liver microsomes assessed as mitragynine pseudoindoxyl formation at 1 uM incubated for 60 mins by LC-MS/MS analysis; format: ADME, Microsome; conditions: 1 h
[8] = tested on: Mus musculus; assay: Antinociceptive activity in KOR knock out C57BL/6J mouse at 45 mg/kg, po measured after 20 mins; format: functional, organism-based
[9] = Drug metabolism in human liver microsomes assessed as 3-dehydromitragynine formation at 1 uM incubated for 60 mins in presence of ketoconazole by LC-MS/MS analysis; format: ADME, Microsome; conditions: 1 h
[10] = tested on: Mus musculus; assay: Antinociceptive activity in sc dosed 129Sv6 mouse model assessed as time required for peak effect at ED50 by radiant heat tail flick assay; format: functional
[11] = Drug metabolism in C57BL/6J mouse plasma assessed as 3-dehydromitragynine formation at ED80, po; format: ADME, cell-free
[12] = Drug metabolism in 129Sv6 mouse liver microsomes assessed as mitragynine pseudoindoxyl formation at 1 uM incubated for 60 mins in presence of ketoconazole by LC-MS/MS analysis; format: ADME, Microsome; conditions: 1 h
[13] = Drug metabolism in 129Sv6 mouse plasma assessed as mitragynine pseudoindoxyl formation at 10 mg/kg, po measured after 15 mins by LC-MS/MS analysis; format: ADME, organism-based; conditions: in vivo, 0.25 h
[14] = Stability in human liver microsomes assessed as half life at 1 uM incubated for 60 mins by LC-MS/MS analysis; format: ADME, Microsome; conditions: 1 h
[15] = target: T1, Cytochrome P450 3A (Mus musculus, UniProt O09158+Q64464+Q64481+Q9JMA7); assay: Metabolic stability in 129Sv6 mouse liver microsomes assessed as CYP3A-mediated decomposition by measuring half life at 1 uM incubated for 60 mins in presence of ketoconazole by LC-MS/MS analysis; format: ADME, Microsome; conditions: 1 h
[16] = Drug concentration in C57BL/6J mouse brain at 30 mg/kg, po measured after 20 mins by LC-MS/MS analysis; format: ADME, organism-based; conditions: read-out: Ct
[17] = Drug metabolism in human liver microsomes assessed as 3-dehydromitragynine formation at 1 uM incubated for 60 mins in absence of NADPH by LC-MS/MS analysis; format: ADME, Microsome; conditions: 1 h
[18] = tested on: Mus musculus; assay: Antinociceptive activity in MOR knock out 129Sv6 mouse at 10 mg/kg, po measured after 15 mins; format: functional, organism-based
[19] = Drug concentration in 129Sv6 mouse brain at 10 mg/kg, sc measured after 15 mins by LC-MS/MS analysis; format: ADME, organism-based; conditions: read-out: Ct
[20] = Drug metabolism in C57BL/6J mouse brain assessed as mitragynine pseudoindoxyl formation at 30 mg/kg, po measured after 8 hrs by LC-MS/MS analysis; format: ADME, organism-based; conditions: in vivo
[21] = Drug metabolism in human liver microsomes assessed as 3-dehydromitragynine formation at 1 uM incubated for 60 mins in presence of NADPH by LC-MS/MS analysis; format: ADME, Microsome; conditions: 1 h
[22] = Drug metabolism in C57BL/6J mouse liver microsomes assessed as 3-dehydromitragynine formation at 1 uM incubated for 60 mins by LC-MS/MS analysis; format: ADME, Microsome; conditions: 1 h
[23] = tested on: Mus musculus; assay: Antinociceptive activity in sc dosed C57BL/6J mouse model assessed as time required for peak effect at ED50 by radiant heat tail flick assay; format: functional
[24] = tested on: Mus musculus; assay: Antinociceptive activity in sc dosed C57BL/6J mouse model assessed as peak effect measured at 20 mins by radiant heat tail flick assay; format: functional
[25] = Drug concentration in C57BL/6J mouse brain at 30 mg/kg, po measured after 24 hrs by LC-MS/MS analysis; format: ADME, organism-based; conditions: in vivo, BLD = below limit of detection
[26] = Stability in C57BL/6J mouse liver microsomes assessed as half life at 1 uM incubated for 60 mins by LC-MS/MS analysis; format: ADME, Microsome; conditions: 1 h
[27] = Drug metabolism in 129Sv6 mouse brain assessed as mitragynine pseudoindoxyl formation at 10 mg/kg, po measured after 15 mins by LC-MS/MS analysis; format: ADME, organism-based; conditions: in vivo, 0.25 h
[28] = target: T1, Cytochrome P450 3A; assay: Metabolic stability in CYP3A KO C57BL/6J mouse liver microsomes assessed as CYP3A-mediated decomposition by measuring half life at 1 uM incubated for 60 mins in presence of ketoconazole by LC-MS/MS analysis; format: ADME, Microsome; conditions: 1 h
[29] = Drug concentration in 129Sv6 mouse brain at 10 mg/kg, po measured after 15 mins by LC-MS/MS analysis; format: ADME, organism-based; conditions: read-out: Ct
[30] = Drug metabolism in human S9 fraction assessed as compound depletion at 1 uM incubated for 60 mins in presence of NADPH by LC-MS/MS analysis; format: ADME, subcellular; conditions: s9, 1 h
[31] = Drug metabolism in human liver microsomes assessed as 3-dehydromitragynine formation at 1 uM incubated for 60 mins by LC-MS/MS analysis; format: ADME, Microsome; conditions: 1 h
[32] = Drug metabolism in human S9 fractions assessed as 3-dehydromitragynine formation at 1 uM incubated for 60 mins in absence of NADPH by LC-MS/MS analysis; format: ADME, subcellular, S9 fraction; conditions: s9, 1 h
[33] = tested on: Mus musculus; assay: Antinociceptive activity in po dosed 129Sv6 mouse model assessed as time required for peak effect at ED50 by radiant heat tail flick assay; format: functional
[34] = Drug metabolism in human S9 fraction assessed as mitragynine pseudoindoxyl formation at 1 uM incubated for 60 mins in presence of NADPH by LC-MS/MS analysis; format: ADME, subcellular; conditions: s9, 1 h
[35] = Drug metabolism in human liver microsomes assessed as mitragynine pseudoindoxyl formation at 1 uM incubated for 60 mins in presence of NADPH by LC-MS/MS analysis; format: ADME, Microsome; conditions: 1 h
[36] = Drug metabolism in C57BL/6J mouse brain assessed as 3-dehydromitragynine formation at ED80, po; format: ADME, tissue-based
[37] = tested on: Mus musculus; assay: Antinociceptive activity in KOR knock out 129Sv6 mouse at 10 mg/kg, po measured after 15 mins; format: functional, organism-based
[38] = Drug metabolism in C57BL/6J mouse brain assessed as mitragynine pseudoindoxyl formation at 30 mg/kg, po measured after 20 mins by LC-MS/MS analysis; format: ADME, organism-based; conditions: in vivo
[39] = Drug metabolism in human S9 fractions assessed as 3-dehydromitragynine formation at 1 uM incubated for 60 mins in presence of NADPH by LC-MS/MS analysis; format: ADME, subcellular, S9 fraction; conditions: s9, 1 h
[40] = Drug metabolism in C57BL/6J mouse liver microsomes assessed as mitragynine pseudoindoxyl formation at 1 uM incubated for 60 mins in presence of ketoconazole by LC-MS/MS analysis; format: ADME, Microsome; conditions: 1 h
[41] = Drug metabolism in C57BL/6J mouse liver microsomes assessed as mitragynine pseudoindoxyl formation at 1 uM incubated for 60 mins by LC-MS/MS analysis; format: ADME, Microsome; conditions: 1 h

CC[C@@H]1CN2CCc3c([nH]c4cccc(OC)c34)[C@@H]2C[C@@H]1/C(=C\OC)C(=O)OC
Activity [1]: inactive
Activity [2]: Non-Toxic
concentration at 20 min [3]: 9.74 µM
ED50 [4]: 57.3 mg/kg
Activity [5]: Active
Drug metabolism [6]: Metabolite_Detected
Drug metabolism [7]: Metabolite_Detected
Activity [8]: Active
Drug metabolism [9]: Metabolite_Detected
Time [10]: 15 min
Drug metabolism [11]: 0.037 µM
Drug metabolism [12]: Metabolite_Notdetected
Drug metabolism [13]: 13 nM
t1/2 [14]: 7.5 min
t1/2 [15]: 24.4 min
concentration at 20 min [16]: 6.63 µM
Drug metabolism [17]: Metabolite_Detected
Activity [18]: inactive
concentration at 0.25 h [19]: 30.1 µM
Drug metabolism [20]: Metabolite_Notdetected
Drug metabolism [21]: Metabolite_Detected
Drug metabolism [22]: Metabolite_Detected
Time [23]: 15 min
ED50 [24]: 25.9 mg/kg
Ct [25]: Bld
t1/2 [26]: 5.9 min
Drug metabolism [27]: 180 nM
t1/2 [28]: 25.2 min
concentration at 0.25 h [29]: 12.2 µM
Drug metabolism [30]: Metabolite_Detected
Drug metabolism [31]: Metabolite_Detected
Drug metabolism [32]: Metabolite_Detected
Time [33]: 15 min
Drug metabolism [34]: Metabolite_Detected
Drug metabolism [35]: Metabolite_Detected
Drug metabolism [36]: 0.094 µM
Activity [37]: Active
Drug metabolism [38]: 40 nM
Drug metabolism [39]: Metabolite_Detected
Drug metabolism [40]: Metabolite_Notdetected
Drug metabolism [41]: Metabolite_Detected
